Residue numbers refer to the chain shown, from its start.
Tests used:
Type in all cases: cell-based
GlyT1 L425I mutant = target: T1, GlyT1 L425I mutant (Homo sapiens, UniProt P48067, L439I); experiment: Glycine transport currents, two electrode voltage clamp, oocytes expressing GlyT1 L425I; conditions: for % Max. inhibition: mean ± SEM; for sensitivity of GlyT1 L425I to inhibition: similar to the WT GlyT1 response
T1 construct: expressed in transfected cells; host or cells: Xenopus laevis oocytes (cRNA injection)
T1 sequence (P48067 1-652 isoform P48067-3 L385I): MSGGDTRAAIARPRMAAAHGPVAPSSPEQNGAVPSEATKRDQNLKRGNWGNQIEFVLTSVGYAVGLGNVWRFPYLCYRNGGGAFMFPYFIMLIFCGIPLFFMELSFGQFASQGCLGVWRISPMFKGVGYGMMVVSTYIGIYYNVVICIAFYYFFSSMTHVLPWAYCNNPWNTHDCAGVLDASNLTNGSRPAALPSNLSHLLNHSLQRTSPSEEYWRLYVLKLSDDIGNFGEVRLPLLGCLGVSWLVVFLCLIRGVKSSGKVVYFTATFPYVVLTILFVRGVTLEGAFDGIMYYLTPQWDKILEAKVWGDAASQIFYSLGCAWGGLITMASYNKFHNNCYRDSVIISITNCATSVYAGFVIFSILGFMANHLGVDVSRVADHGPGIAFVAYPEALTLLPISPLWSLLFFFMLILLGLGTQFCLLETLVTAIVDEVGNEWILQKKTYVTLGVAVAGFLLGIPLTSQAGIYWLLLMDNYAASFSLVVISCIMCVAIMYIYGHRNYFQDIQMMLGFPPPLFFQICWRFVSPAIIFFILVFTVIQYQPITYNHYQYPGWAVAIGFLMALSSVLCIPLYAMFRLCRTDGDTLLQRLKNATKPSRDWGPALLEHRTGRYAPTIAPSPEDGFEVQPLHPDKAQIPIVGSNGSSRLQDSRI
Protocol: (§1) Glycine was first applied to establish maximal transport current.
(§2) Compounds were tested for inhibition of glycine transport on Xenopus laevis oocytes expressing mutant GlyT1 and GlyT2 transporters. n values are in brackets, with measurements taken from at least 2 batches of oocytes.

GlyT2 V432A mutant = target: T2, GlyT2 V432A mutant (Homo sapiens, UniProt Q9Y345, V432A); experiment: Glycine transport currents, two electrode voltage clamp, oocytes expressing GlyT2 V432A; conditions: for % Max. inhibition: mean ± SEM
T2 construct: expressed in transfected cells; host or cells: Xenopus laevis oocytes (cRNA injection)
T2 sequence (Q9Y345 1-797 V432A): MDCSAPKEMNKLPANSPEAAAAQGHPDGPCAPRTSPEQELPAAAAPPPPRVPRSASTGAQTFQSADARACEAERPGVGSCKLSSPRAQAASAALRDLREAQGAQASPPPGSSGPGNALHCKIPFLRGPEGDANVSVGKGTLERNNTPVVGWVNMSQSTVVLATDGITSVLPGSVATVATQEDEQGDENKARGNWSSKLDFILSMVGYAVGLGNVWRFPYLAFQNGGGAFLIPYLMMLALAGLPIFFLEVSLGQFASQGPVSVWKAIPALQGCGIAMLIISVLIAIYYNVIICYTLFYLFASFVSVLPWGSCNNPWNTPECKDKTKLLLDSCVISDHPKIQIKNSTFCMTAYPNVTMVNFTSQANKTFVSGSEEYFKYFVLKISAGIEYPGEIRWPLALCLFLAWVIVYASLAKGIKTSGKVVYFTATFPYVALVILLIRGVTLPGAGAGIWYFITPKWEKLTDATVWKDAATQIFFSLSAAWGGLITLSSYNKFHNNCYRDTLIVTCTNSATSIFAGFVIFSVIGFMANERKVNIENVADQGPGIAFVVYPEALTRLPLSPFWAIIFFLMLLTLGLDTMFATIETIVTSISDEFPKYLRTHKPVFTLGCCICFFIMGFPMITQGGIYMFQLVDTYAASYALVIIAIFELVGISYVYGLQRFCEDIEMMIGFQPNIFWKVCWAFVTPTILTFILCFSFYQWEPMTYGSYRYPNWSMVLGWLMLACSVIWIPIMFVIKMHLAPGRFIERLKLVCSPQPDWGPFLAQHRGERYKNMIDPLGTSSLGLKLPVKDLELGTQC
Protocol: as §1, §2

GlyT2 W563L mutant = target: T3, GlyT2 W563L mutant (Homo sapiens, UniProt Q9Y345, W563L); experiment: Glycine transport currents, two electrode voltage clamp, oocytes expressing GlyT2 W563L; conditions: for % Max. inhibition: mean ± SEM
T3 construct: expressed in transfected cells; host or cells: Xenopus laevis oocytes (cRNA injection)
T3 sequence (Q9Y345 1-797 W563L): T2 sequence (Q9Y345 1-797 V432A) with A432V, W563L
Protocol: as §1, §2

[1] = GlyT1 L425I, greater than maximum concentration applied (footnote a)
[2] = GlyT2 V432A, greater than maximum concentration applied (footnote a)
[3] = GlyT2 W563L, greater than maximum concentration applied (footnote a)

Compound | IC50 (GlyT1 L425I mutant; [1]) [µM] | % Max. inhibition (GlyT1 L425I mutant; GlyT1 L425I) | IC50 (GlyT2 V432A mutant; [2]) [µM] | % Max. inhibition (GlyT2 V432A mutant; GlyT2 V432A) | IC50 (GlyT2 W563L mutant; GlyT2 W563L, mean (95% CI)) [µM] | % Max. inhibition (GlyT2 W563L mutant; GlyT2 W563L) | IC50 (GlyT2 W563L mutant; [3]) [µM] | also measured
CCCCC/C=C\C/C=C\C/C=C\C/C=C\CCCC(=O)NCC(=O)O [N-arachidonyl Glycine, reference compound] | > 10 | 31.6 ± 6.9 (p=0.0361) % | > 10 | 4.2 ± 3.2 (p=0.0018) % | – | – | – | –
NCC(=O)O [Glycine] | – | – | – | – | – | – | – | EC50 (GlyT1 L425I mutant; glycine transport, GlyT1 mutant printed I425L (EL4)): 45.1 ± 9.6 µM; EC50 (GlyT2 W563L mutant; glycine transport, GlyT2 W563L (TM8)): 4.9 ± 0.8 µM; EC50 (GlyT2 V432A mutant; glycine transport, GlyT2 V432A (TM5)): 114 ± 21.6 µM
CCCCCCCC/C=C\CCCCCCCC(=O)N[C@@H](CC(=O)O)C(=O)O [oleoyl l-Aspartate] | – | – | – | – | 1.16 | 74.9 ± 7.5 (p=0.9965) % | – | –
CCCCCCCC/C=C\CCCCCCCC(=O)NCC(=O)O [N-oleoyl Glycine, reference compound] | > 10 | – | > 10 | – | 0.755 | 46.6 ± 4.0 (p=0.0449) % | – | % Max. inhibition (% inhibition at the highest concentration of inhibitor used) (GlyT1 L425I mutant; GlyT1 L425I, footnote b): 28.5 ± 5.3^b (p=0.0564) %; sensitivity of GlyT1 L425I to inhibition (GlyT1 L425I mutant): insensitive; % Max. inhibition (% inhibition at the highest concentration of inhibitor used) (GlyT2 V432A mutant; GlyT2 V432A, footnote b): 1.9 ± 3.2^b (p=0.0001) %
CCCCCCCC/C=C\CCCCCCCC(=O)O[C@H](CC(=O)[O-])C[N+](C)(C)C [oleoyl L-Carnitine, reference compound] | – | 74.6% | > 3 | 6.0 ± 3.2 (p=0.0001) % | – | 34.7 ± 3.2 (p=0.0001) % | > 3 | –
oleoyl d-Lysine | – | – | – | – | – | 42.1 ± 7.7 (p=0.0017) % | > 3 | –
CCCCCCCC/C=C\CCCCCCCC(=O)N[C@@H](Cc1c[nH]c2ccccc12)C(=O)O [oleoyl l-Tryptophan] | > 3 | 35.7 ± 13.2 (p=0.2787) % | – | – | – | 42.9 ± 2.6 (p=0.0001) % | > 3 | sensitivity of GlyT1 L425I to inhibition (GlyT1 L425I mutant): insensitive
CCCCCCCC/C=C\CCCCCCCC(=O)N[C@H](C(=O)O)C(C)C [oleoyl l-Valine] | – | – | – | – | 7.51 | – | – | % Max. inhibition (% inhibition at the highest concentration of inhibitor used) (GlyT2 W563L mutant; GlyT2 W563L, footnote b): 56.3 ± 9.1^b (p=0.5737) %
CCCCCCCC/C=C\CCCCCCCC(=O)N[C@@H](CCCCN)C(=O)O [oleoyl l-Lysine] | – | 95.6% | – | 71.9 ± 1.9 (p=0.0001) % | 0.175 | 73.5 ± 3.3 (p=0.1479) % | – | fold lower apparent affinity at GlyT1 L425I (GlyT1 L425I mutant; GlyT1 L425I compared with WT GlyT2): 9 fold; IC50 (GlyT1 L425I mutant; GlyT1 L425I, mean (95% CI)): 0.236 µM; IC50 (GlyT2 V432A mutant; GlyT2 V432A, mean (95% CI)): 0.0684 µM

Source: publication PMC6797481, “Identification of an allosteric binding site on the human glycine transporter, GlyT2, for bioactive lipid analgesics” (eLife, 2019)
